Reference: patent US20260083130A1, “NOVEL SULFONATE BENZAMIDE COMPOUNDS FOR CONTROLLING INVERTEBRATE PESTS” (FMC CORPORATION, priority 2022, published 2026)
Like-named read-outs stand apart in the source and are kept apart here.

Columns and labels:
Type in all cases: in vivo
[1] = system: cotton melon aphid (Aphis gossypii (Glover)); experiment: Test E: control of cotton melon aphid, spray on okra plant; conditions: 144 h; for mortality at 2 ppm: sprayed at 2 ppm; for mortality at 10 ppm: sprayed at 10 ppm
Experimental: (§1) Test compounds were formulated using a solution containing 10% acetone, 90% water and 300 ppm Activator 90® non-ionic surfactant (Loveland Products, Loveland, Colorado, USA). The formulated compounds were applied in 1 mL of liquid through an atomized nozzle positioned 1.27 cm (0.5 inches) above the top of each test unit. Test compounds were sprayed at the rates indicated, and each test was replicated three times.
For evaluating control of cotton melon aphid (Aphis gossypii (Glover)) through contact and/or systemic means, the test unit consisted of a small open container with a 5-day-old okra plant inside. This was pre-infested with 30-40 insects on a piece of leaf according to the cut-leaf method, and the soil of the test unit was covered with a layer of sand.
Test compounds were formulated and sprayed at 250, 50, 10, and 2 ppm with three replications as described above. After spraying, the test units were maintained in a growth chamber for 6 days at 19° C. and 70% relative humidity. Each test unit was then visually assessed for insect mortality.

[2] = system: Corn Planthopper (Peregrinus maidis (Ashmead)); experiment: Test C: control of Corn Planthopper, spray on corn plant; conditions: 144 h, nymphs, assessed after 6 days; for mortality at 250 ppm: sprayed at 250 ppm; for mortality at 50 ppm: sprayed at 50 ppm
Experimental: as §1
For evaluating control of Corn Planthopper (Peregrinus maidis (Ashmead)) through contact and/or systemic means, the test unit consisted of a small open container with a 3- to 4-day-old corn (maize) plant inside. White sand was added to the top of the soil prior to application of the test compound.
Test compounds were formulated and sprayed at 250 and 50 ppm with three replications as described above. After spraying of the formulated test compound, the test units were allowed to dry for 1 h before they were post-infested with ˜15-20 nymphs (18-to-21-day-old). A black, screened cap was placed on the top of each test unit, and the test units were held for 6 days in a growth chamber at 22 to 24° C. and 50-70% relative humidity. Each test unit was then visually assessed for insect mortality.

[3] = system: Green Peach Aphid (Myzus persicae (Sulzer)); experiment: Test D: control of Green Peach Aphid, spray on radish plant; conditions: 144 h, assessed after 6 days; for mortality at 250 ppm: sprayed at 250 ppm
Experimental: as §1
For evaluating control of Green Peach Aphid (Myzus persicae (Sulzer)) through contact and/or systemic means, the test unit consisted of a small open container with a 12- to 15-day-old radish plant inside. Prior to compound application, each test unit was pre-infested by placing on a leaf of the test plant 30-40 aphids on a piece of leaf excised from a culture plant (cut-leaf method). The aphids moved onto the test plant as the leaf piece desiccated. After pre-infestation, the soil of the test unit was covered with a layer of sand.
Test compounds were formulated and sprayed at 250 and 50 ppm with three replications as described above. After spraying of the formulated test compound, each test unit was allowed to dry for 1 hour and then a black, screened cap was placed on top. The test units were held for 6 days in a growth chamber at 19-21° C. and 50-70% relative humidity. Each test unit was then visually assessed for insect mortality.

[4] = sprayed at 50 ppm, assessed after 6 days, read-out: mortality
[5] = sprayed at 250 ppm, assessed after 6 days, read-out: mortality

CC(NC(=O)c1cc(OS(=O)(=O)C(F)(F)F)cc(C(F)(F)F)c1)c1ncnn1-c1ncccn1 (centres unmarked) [Compound 2, 3-[[[1-[1-(2-Pyrimidinyl)-1H-1,2,4-triazol-5-yl]ethyl]amino]carbonyl]-5-(trifluoromethyl)phenyl 1,1,1-trifluoromethanesulfonate]
≥ 80%: mortality at 2 ppm ([1]; assessed after 6 days) | mortality at 10 ppm ([1]; assessed after 6 days) | mortality at 50 ppm [1, 4] | mortality at 250 ppm [1, 5]

CC(NC(=O)c1cccc(OS(=O)(=O)C(F)(F)F)c1)c1ncnn1-c1ncccn1 (centres unmarked) [Compound 3, 3-[[[1-[1-(2-Pyrimidinyl)-1H-1,2,4-triazol-5-yl]ethyl]amino]carbonyl]phenyl 1,1,1-trifluoromethanesulfonate]
≥ 80%: mortality at 250 ppm [2] | mortality at 50 ppm [1, 4] | mortality at 250 ppm [1, 5]

CC(NC(=O)c1cc(Cl)cc(OS(=O)(=O)C(F)(F)F)c1)c1ncnn1-c1ncccn1 (centres unmarked) [Compound 4, 3-Chloro-5-[[[1-[1-(2-pyrimidinyl)-1H-1,2,4-triazol-5-yl]ethyl]amino]carbonyl]phenyl 1,1,1-trifluoromethanesulfonate]
≥ 80%: mortality at 250 ppm [2] | mortality at 50 ppm ([3]; sprayed at 50 ppm) | mortality at 250 ppm [3] | mortality at 2 ppm ([1]; assessed after 6 days) | mortality at 10 ppm ([1]; assessed after 6 days) | mortality at 50 ppm [1, 4] | mortality at 250 ppm [1, 5]

CC(NC(=O)c1cccc(OS(=O)(=O)c2ccccc2)c1)c1ncnn1-c1ncccn1 (centres unmarked) [Compound 6, 3-[(Phenylsulfonyl)oxy]-N-[1-[1-(2-pyrimidinyl)-1H-1,2,4-triazol-5-yl]ethyl]benzamide]
≥ 80%: mortality at 250 ppm [1, 5]

CC(NC(=O)c1cccc(OS(=O)(=O)C(F)F)c1)c1ncnn1-c1ncccn1 (centres unmarked) [Compound 7, 3-[[[1-[1-(2-Pyrimidinyl)-1H-1,2,4-triazol-5-yl]ethyl]amino]carbonyl]phenyl 1,1-difluoromethanesulfonate]
≥ 80%: mortality at 50 ppm [1, 4] | mortality at 250 ppm [1, 5]

C[C@@H](NC(=O)c1cc(Cl)cc(OS(=O)(=O)C(F)(F)F)c1)c1ncnn1-c1ncccn1 [Compound 9, 3-Chloro-5-[[[1-[1-(2-pyrimidinyl)-1H-1,2,4-triazol-5-yl]ethyl]amino]carbonyl]phenyl 1,1,1-trifluoromethanesulfonate; (+) enantiomer]
≥ 80%: mortality at 50 ppm [2] | mortality at 250 ppm [2] | mortality at 250 ppm [3] | mortality at 50 ppm [1, 4] | mortality at 250 ppm [1, 5]

CC(c1ncnn1-c1ncccn1)N(CC1CC1)C(=O)c1cc(Cl)cc(OS(=O)(=O)C(F)(F)F)c1 (centres unmarked) [Compound 10, 3-Chloro-5-[[(cyclopropylmethyl)[1-[1-(2-pyrimidinyl)-1H-1,2,4-triazol-5-yl]ethyl]amino]carbonyl]phenyl 1,1,1-trifluoromethanesulfonate]
≥ 80%: mortality at 50 ppm [2] | mortality at 250 ppm [2] | mortality at 2 ppm ([1]; assessed after 6 days) | mortality at 10 ppm ([1]; assessed after 6 days) | mortality at 50 ppm [1, 4] | mortality at 250 ppm [1, 5]

CC(c1ncnn1-c1ncccn1)N(CC1CC1)C(=O)c1cc(OS(=O)(=O)C(F)(F)F)cc(C(F)(F)F)c1 (centres unmarked) [Compound 11, 3-[[(Cyclopropylmethyl)[1-[1-(2-pyrimidinyl)-1H-1,2,4-triazol-5-yl]ethyl]amino]carbonyl]-5-(trifluoromethyl)phenyl 1,1,1-trifluoromethanesulfonate]
≥ 80%: mortality at 50 ppm [2] | mortality at 250 ppm [2] | mortality at 250 ppm [3] | mortality at 2 ppm ([1]; assessed after 6 days) | mortality at 10 ppm ([1]; assessed after 6 days) | mortality at 50 ppm [1, 4] | mortality at 250 ppm [1, 5]

C[C@H](NC(=O)c1cc(OS(=O)(=O)C(F)(F)F)cc(C(F)(F)F)c1)c1ncnn1-c1ncccn1 [Compound 12, 3-[[[(1S)-[1-(2-Pyrimidinyl)-1H-1,2,4-triazol-5-yl]ethyl]amino]carbonyl]-5-(trifluoromethyl)phenyl 1,1,1-trifluoromethanesulfonate; (−) enantiomer]
≥ 80%: mortality at 250 ppm [1, 5]

C[C@@H](NC(=O)c1cc(OS(=O)(=O)C(F)(F)F)cc(C(F)(F)F)c1)c1ncnn1-c1ncccn1 [Compound 13, (R)3-[[[1-[1-(2-Pyrimidinyl)-1H-1,2,4-triazol-5-yl]ethyl]amino]carbonyl]-5-(trifluoromethyl)phenyl 1,1,1-trifluoromethanesulfonate; (+) enantiomer]
≥ 80%: mortality at 50 ppm [2] | mortality at 250 ppm [2] | mortality at 250 ppm [3] | mortality at 2 ppm ([1]; assessed after 6 days) | mortality at 10 ppm ([1]; assessed after 6 days) | mortality at 50 ppm [1, 4] | mortality at 250 ppm [1, 5]

CC(NC(=O)c1cc(F)cc(OS(=O)(=O)C(F)(F)F)c1)c1ncnn1-c1ncccn1 (centres unmarked) [Compound 14, 3-Fluoro-5-[[[1-[1-(2-pyrimidinyl)-1H-1,2,4-triazol-5-yl]ethyl]amino]carbonyl]phenyl 1,1,1-trifluoromethanesulfonate]
≥ 80%: mortality at 50 ppm [1, 4] | mortality at 250 ppm [1, 5]

CC(NC(=O)c1cc(Br)cc(OS(=O)(=O)C(F)(F)F)c1)c1ncnn1-c1ncccn1 (centres unmarked) [Compound 15, 3-Bromo-5-[[[1-[1-(2-pyrimidinyl)-1H-1,2,4-triazol-5-yl]ethyl]amino]carbonyl]phenyl 1,1,1-trifluoromethanesulfonate]
≥ 80%: mortality at 50 ppm [1, 4] | mortality at 250 ppm [1, 5]

COC(=O)N(C(=O)c1cc(Cl)cc(OS(=O)(=O)C(F)(F)F)c1)C(C)c1ncnn1-c1ncccn1 (centres unmarked) [Compound 20]
≥ 80%: mortality at 50 ppm [1] | mortality at 250 ppm [1]

CCN(C(=O)c1cc(OS(=O)(=O)C(F)(F)F)cc(C(F)(F)F)c1)C(C)c1ncnn1-c1ncccn1 (centres unmarked) [Compound 27, 3-[[ethyl[1-[1-(2-pyrimidinyl)-1H-1,2,4-triazol-5-yl]ethyl]amino]carbonyl]-5-(trifluoromethyl)phenyl 1,1,1-trifluoromethanesulfonate]
≥ 80%: mortality at 250 ppm [2] | mortality at 50 ppm [1, 4] | mortality at 250 ppm [1, 5]

CC(NC(=O)c1cc(OS(=O)(=O)CC(F)(F)F)cc(C(F)(F)F)c1)c1ncnn1-c1ncccn1 (centres unmarked) [Compound 28]
≥ 80%: mortality at 250 ppm [1, 5]

CC(NC(=O)c1cc(OS(=O)(=O)C(F)F)cc(C(F)(F)F)c1)c1ncnn1-c1ncccn1 (centres unmarked) [Compound 38]
≥ 80%: mortality at 250 ppm [1, 5]

CC(NC(=O)c1cc(Cl)cc(OS(=O)(=O)C(F)F)c1)c1ncnn1-c1ncccn1 (centres unmarked) [Compound 39]
≥ 80%: mortality at 250 ppm [1, 5]

CC(NC(=O)c1cc(OS(=O)(=O)C(F)(F)F)cc([N+](=O)[O-])c1)c1ncnn1-c1ncccn1 (centres unmarked) [Compound 46]
≥ 80%: mortality at 50 ppm [1, 4] | mortality at 250 ppm [1, 5]

COC(=O)N(C(=O)c1cc(OS(=O)(=O)C(F)(F)F)cc(C(F)(F)F)c1)C(C)c1ncnn1-c1ncccn1 (centres unmarked) [Compound 48]
≥ 80%: mortality at 50 ppm [1] | mortality at 250 ppm [1]

CCN(C(=O)c1cc(Cl)cc(OS(=O)(=O)C(F)(F)F)c1)C(C)c1ncnn1-c1ncccn1 (centres unmarked) [Compound 50, 3-chloro-5-[[ethyl[1-[1-(2-pyrimidinyl)-1H-1,2,4-triazol-5-yl]ethyl]amino]carbonyl]phenyl 1,1,1-trifluoromethanesulfonate]
≥ 80%: mortality at 250 ppm [2] | mortality at 250 ppm [3] | mortality at 50 ppm [1, 4] | mortality at 250 ppm [1, 5]

CC(NC(=O)c1cc(Cl)cc(OS(=O)(=O)CC(F)(F)F)c1)c1ncnn1-c1ncccn1 (centres unmarked) [Compound 52]
≥ 80%: mortality at 250 ppm [1, 5]

CC(c1ncnn1-c1ncccn1)N(C)C(=O)c1cc(Cl)cc(OS(=O)(=O)C(F)(F)F)c1 (centres unmarked) [Compound 72]
≥ 80%: mortality at 50 ppm [2] | mortality at 250 ppm [2] | mortality at 250 ppm [3] | mortality at 2 ppm ([1]; assessed after 6 days) | mortality at 10 ppm ([1]; assessed after 6 days) | mortality at 50 ppm [1, 4] | mortality at 250 ppm [1, 5]
